# Read-outs that look alike come from different tables or passages of the source.
# Experiments:
# [1] = test system: 786-0; experiment: Resazurin viability, 5 days; format: cell-based, human; details: 786-0, C, Kidney adenocarcinoma
# Description: (§1) Cells were seeded in 96- or 384-well plates and incubated for 3 days for combination experiments or 5 days for single-drug exposure experiments. Resazurin (R7017, SigmaAldrich) was added to a final concentration of 0.01 mg/ml resazurin and fluorescence was measured at ex530/em590 after incubation for 2, 4 or 6 h. Curves were fitted using XLfit software (IDBS) or Prism 8.0 (Graphpad Software), and EC50 values were determined.
# (§2) Supplementary Table S1: Effect of OGG1 inhibitors on cancer and non-transformed cell lines.
# (§3) Cell lines were incubated with a dilution series of the indicated compounds for 5 days, and viability
# (§4) assessed with resazurin. EC50-values were calculated based on the resulting dose -response curves.
# (§5) The number of independent experiments is indicated for each value.
# (§6) C=cancer;N=non- Disease EC50 n= EC50 n= EC50 n=
# [2] = test system: A498; experiment: Resazurin viability, 5 days; format: cell-based, human; details: A498, C, Kidney carcinoma
# Description: as §1, §2, §3, §4, §5, §6
# [3] = test system: BJ-Tert; experiment: Resazurin viability, 5 days; format: cell-based, human
# Description: as §1, §2, §3, §4, §5, §6
# [4] = test system: CCD841; experiment: Resazurin viability, 5 days; format: cell-based, human; details: CCD841, N, Non-transformed fibroblast
# Description: as §1, §2, §3, §4, §5, §6
# [5] = test system: DU145; experiment: Resazurin viability, 5 days; format: cell-based, human; details: DU145, C, Prostate carcinoma
# Description: as §1, §2, §3, §4, §5, §6
# [6] = test system: Daudi; experiment: Resazurin viability, 5 days; format: cell-based, human; details: C, Burkitt's lymphoma
# Description: as §1, §2, §3, §4, §5, §6
# [7] = test system: H460; experiment: Resazurin viability, 5 days; format: cell-based, human; details: H460, C, Large cell lung carcinoma
# Description: as §1, §2, §3, §4, §5, §6
# [8] = test system: HCT116+Chr3; experiment: Resazurin viability, 5 days; format: cell-based, human; details: HCT116+Chr3, C, Colorectal carcinoma with WT Chr3
# Description: as §1, §2, §3, §4, §5, §6
# [9] = test system: HCT116; experiment: Resazurin viability, 5 days; format: cell-based, human; details: HCT116, C, Colorectal carcinoma
# Description: as §1, §2, §3, §4, §5, §6
# [10] = test system: HL-60; experiment: Resazurin viability, 5 days; format: cell-based, human; details: HL-60, C, Acute promyelocytic leukemia
# Description: as §1, §2, §3, §4, §5, §6
# [11] = test system: HT-29; experiment: Resazurin viability, 5 days; format: cell-based, human; details: HT-29, C, Colorectal adenocarcinoma
# Description: as §1, §2, §3, §4, §5, §6
# [12] = test system: HeLa; experiment: Resazurin viability, 5 days; format: cell-based, human; details: C, Cervix adenomcarcinoma
# Description: as §1, §2, §3, §4, §5, §6
# [13] = test system: M059K; experiment: Resazurin viability, 5 days; format: cell-based, human; details: C, Glioblastoma
# Description: as §1, §2, §3, §4, §5, §6
# [14] = test system: MOLT4; experiment: Resazurin viability, 5 days; format: cell-based, human; details: MOLT4, C, T-cell acute lymphoblastic leukemia
# Description: as §1, §2, §3, §4, §5, §6
# [15] = test system: MRC5; experiment: Resazurin viability, 5 days; format: cell-based, human; details: MRC5, N, Non-transformed lung fibroblast
# Description: as §1, §2, §3, §4, §5, §6
# [16] = test system: MV4-11; experiment: Resazurin viability, 5 days; format: cell-based, human; details: MV4-11, C, Acute monocytic leukemia
# Description: as §1, §2, §3, §4, §5, §6
# [17] = test system: PC3; experiment: Resazurin viability, 5 days; format: cell-based, human; details: PC3, C, Prostate adenocarcinoma
# Description: as §1, §2, §3, §4, §5, §6
# [18] = test system: PL-21; experiment: Resazurin viability, 5 days; format: cell-based, human; details: PL-21, C, Acute myeloid leukemia
# Description: as §1, §2, §3, §4, §5, §6
# [19] = test system: Raji; experiment: Resazurin viability, 5 days; format: cell-based, human; details: C, Burkitt's lymphoma
# Description: as §1, §2, §3, §4, §5, §6
# [20] = test system: Rec1; experiment: Resazurin viability, 5 days; format: cell-based, human; details: Rec1, C, B cell non-Hodgkin's lymphoma
# Description: as §1, §2, §3, §4, §5, §6
# [21] = test system: SW480; experiment: Resazurin viability, 5 days; format: cell-based, human; details: SW480, C, Colorectal adenocarcinoma
# Description: as §1, §2, §3, §4, §5, §6
# [22] = test system: SaOS2; experiment: Resazurin viability, 5 days; format: cell-based, human; details: SaOS2, C, Osteosarcoma
# Description: as §1, §2, §3, §4, §5, §6
# [23] = test system: T98G; experiment: Resazurin viability, 5 days; format: cell-based, human; details: C, Glioblastoma
# Description: as §1, §2, §3, §4, §5, §6
# [24] = test system: U2OS; experiment: Resazurin viability, 5 days; format: cell-based, human; details: C, Osteosarcoma
# Description: as §1, §2, §3, §4, §5, §6
# [25] = test system: UO31; experiment: Resazurin viability, 5 days; format: cell-based, human; details: UO31, C, Kidney carcinoma
# Description: as §1, §2, §3, §4, §5, §6
# [26] = test system: VH10; experiment: Resazurin viability, 5 days; format: cell-based, human; details: VH10, N, Non-transformed fibroblast
# Description: as §1, §2, §3, §4, §5, §6
# [27] = test system: MEF Ogg1(-/-); experiment: Resazurin viability, 5 days; format: cell-based; details: N, Non-transformed mouse embryonic fibroblast
# Description: as §1, §2, §3, §4, §5, §6
# transformed (µM) (µM) (µM) […]
# [28] = molecular target: OGG1 enzyme (Homo sapiens, UniProt O15527); experiment: OGG1 activity in vitro (biochemical assay); details: for IC50: 1 nM OGG1, 10 nM 8oxoA:C substrate, 2 nM APE1, read-out: IC50 of OGG1 inhibition
# OGG1 enzyme, sequence (O15527 whole entry): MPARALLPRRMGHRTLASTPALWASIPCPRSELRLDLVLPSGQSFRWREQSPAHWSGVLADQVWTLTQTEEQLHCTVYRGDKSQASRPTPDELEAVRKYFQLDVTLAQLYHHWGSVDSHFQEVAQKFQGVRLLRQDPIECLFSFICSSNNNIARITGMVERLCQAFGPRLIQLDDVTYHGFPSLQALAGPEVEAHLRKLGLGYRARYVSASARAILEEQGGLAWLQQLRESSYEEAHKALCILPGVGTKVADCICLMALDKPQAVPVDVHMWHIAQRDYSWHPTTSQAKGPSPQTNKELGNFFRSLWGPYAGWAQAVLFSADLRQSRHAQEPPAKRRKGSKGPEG
# Description: OGG1 activity was assessed in vitro as previously described ([39]).
# Figure 7. […] (A) Lack of TH5487 efficacy in vivo. A3 cells were injected subcutaneously in mice, allowed to graft for three days and then administered […] TH5487 orally, once a day on weekdays. Twelve days into the treatment, the dose was increased to 40 mg/kg. Data are average ± SD (n = 9 per treatment group). (B) TH5487 target engagement in A3 xenograft. Tumors were excised following termination, and TH5487 target engagement was analyzed by cellular thermal shift assay, using an antibody specific for the human OGG1 protein. Data are average ± SD (n = 4 different tumors per group). (C) Effect of bovine serum albumin on OGG1 inhibition by TH5487. A dilution series of TH5487 was incubated with OGG1 enzyme and a DNA reporter oligonucleotide containing an OGG1-substrate, in the presence or absence of 1% (w/v) bovine serum albumin. Data are average ± SD of four technical replicates from two independent experiments.
# Supplementary Fig. S4: OGG1 inhibitors selectively inhibt cancer cell line proliferation A. TH5796 and TH6943 inhibit OGG1 activity in vitro. OGG1 enzyme was treated with the indicated concentration inhibitor in technical duplicates. The line connects the average values. TH5796 inhibits OGG1 with an […]
# with the indicated concentrations of TH5796 or TH6943 and 10 nM 8oxoA:C substrate in the presence of 2 nM APE1 as described. B. Chemical structure of TH5487 and the analogues described in this work.
# C. Correlation between TH5487 EC 50 values and TH5796 or TH6943. Cell lines were treated for five […]
# experiments. The lines indicate the best fit linear regression line, and R 2 the corresponding coefficient of determination. D. to F. Cancer cell selectivity for TH5487 (D), TH5796 (E) and TH6943 (F). Cell lines were treated as in Fig. 3E, and each point represents the EC50 value determined from 1 –5 independent […]
# (1 picture or pasted object on this page, not shown here)
# [29] = Homo sapiens, 120 h, BJ-Tert, N, Tert-Immortalized fibroblast, 5 days, resazurin, read-out: EC50
smiles,measurement,setting,value
O=C(Nc1ccc(I)cc1)N1CCC(n2c(=O)[nH]c3c(Br)cccc32)CC1 [TH5487],EC50,[1],29.7 µM
same,EC50,[2],28.5 µM
same,EC50,"[3]; BJ-Tert, N, Tert-Immortalized fibroblast, 5 days, resazurin, read-out: EC50",33.7 µM
same,EC50,"[3]; hTERT-immortalized BJ fibroblasts, five days, Figure 3C, read-out: EC50 (viability)",29.5 ± 4.7 µM
same,EC50,[4],43.3 µM
same,EC50,[5],13.2 µM
same,EC50,[6],16.6 µM
same,EC50,[7],10.1 µM
same,EC50,[8],20.6 µM
same,EC50,[9],17.5 µM
same,EC50,[10],15.9 µM
same,EC50,[11],24.5 µM
same,EC50,[12],19.3 µM
same,EC50,[13],20.3 µM
same,EC50,[14],13.2 µM
same,EC50,[15],42.4 µM
same,EC50,[16],7.8 µM
same,EC50,[17],32.6 µM
same,EC50,[18],20.6 µM
same,EC50,[19],19 µM
same,EC50,[20],13.7 µM
same,EC50,[21],33.3 µM
same,EC50,[22],21.4 µM
same,EC50,[23],14.5 µM
same,EC50,[24],19.5 µM
same,EC50,[25],2.9 µM
same,EC50,[26],32.4 µM
same,EC50,[27],47.7 µM
same,Effect of bovine serum albumin on OGG1 inhibition,[28]; presence of 1% (w/v) bovine serum albumin,marked loss of inhibition of OGG1 enzyme activity
"O=C(Nc1ccc(Cl)c(Cl)c1)N1CCC(n2c(=O)[nH]c3c(-c4ccc(CO)nc4)cccc32)CC1 [TH5796, N-(3,4-Dichlorophenyl)-4-[4-[6-(hydroxymethyl)-3-pyridyl]-2-oxo-3H-benzimidazol-1-yl]piperidine-1-carbox amide]",EC50,"[1]; Homo sapiens, 120 h",15.2 µM
same,EC50,"[2]; Homo sapiens, 120 h",21.2 µM
same,EC50,[3]; [29],24.4 µM
same,EC50,"[4]; Homo sapiens, CCD-841, 120 h",39.7 µM
same,EC50,"[5]; Homo sapiens, DU-145, 120 h",10.7 µM
same,EC50,"[6]; Homo sapiens, 120 h",10.1 µM
same,EC50,"[7]; Homo sapiens, NCI-H460, 120 h",14.4 µM
same,EC50,"[8]; Homo sapiens, 120 h",16.7 µM
same,EC50,"[9]; Homo sapiens, HCT-116, 120 h",14.7 µM
same,EC50,"[10]; Homo sapiens, 120 h",14.4 µM
same,EC50,"[11]; Homo sapiens, 120 h",22.6 µM
same,EC50,"[12]; Homo sapiens, 120 h",15.8 µM
same,EC50,"[13]; Homo sapiens, 120 h",19.4 µM
same,EC50,"[14]; Homo sapiens, MOLT-4, 120 h",12.6 µM
same,EC50,"[15]; Homo sapiens, 120 h",20.8 µM
same,EC50,"[16]; Homo sapiens, 120 h",6.5 µM
same,EC50,"[17]; Homo sapiens, PC-3, 120 h",19.3 µM
same,EC50,"[18]; Homo sapiens, 120 h",10.2 µM
same,EC50,"[19]; Homo sapiens, 120 h",20.5 µM
same,EC50,"[20]; Homo sapiens, 120 h",12.6 µM
same,EC50,"[21]; Homo sapiens, 120 h",20.3 µM
same,EC50,"[22]; Homo sapiens, SAOS-2, 120 h",16.2 µM
same,EC50,"[23]; Homo sapiens, 120 h",18.5 µM
same,EC50,"[24]; Homo sapiens, 120 h",16.1 µM
same,EC50,"[25]; Homo sapiens, UO-31, 120 h",7.1 µM
same,EC50,"[26]; Homo sapiens, 120 h",20.9 µM
same,EC50,[27]; 120 h,45.8 µM
same,IC50,[28],0.766 µM
"Cc1cc(NC(=O)N2CCC(n3c(=O)[nH]c4c(Br)cccc43)CC2)ccc1I [TH6943, 4-(4-Bromo-2-oxo-3H-benzimidazol-1-yl)-N-(4-iodo-3-methyl-phenyl)piperidine-1-carboxamide]",EC50,"[1]; Homo sapiens, 120 h",33 µM
same,EC50,"[2]; Homo sapiens, 120 h",35.1 µM
same,EC50,[3]; [29],30.5 µM
same,EC50,"[4]; Homo sapiens, CCD-841, 120 h",54.2 µM
same,EC50,"[5]; Homo sapiens, DU-145, 120 h",3.1 µM
same,EC50,"[6]; Homo sapiens, 120 h",12.1 µM
same,EC50,"[7]; Homo sapiens, NCI-H460, 120 h",16.5 µM
same,EC50,"[8]; Homo sapiens, 120 h",20.3 µM
same,EC50,"[9]; Homo sapiens, HCT-116, 120 h",28.6 µM
same,EC50,"[10]; Homo sapiens, 120 h",23.9 µM
same,EC50,"[11]; Homo sapiens, 120 h",22 µM
same,EC50,"[12]; Homo sapiens, 120 h",34.9 µM
same,EC50,"[13]; Homo sapiens, 120 h",27 µM
same,EC50,"[14]; Homo sapiens, MOLT-4, 120 h",17.4 µM
same,EC50,"[15]; Homo sapiens, 120 h",47.1 µM
same,EC50,"[16]; Homo sapiens, 120 h",9.6 µM
same,EC50,"[17]; Homo sapiens, PC-3, 120 h",28.7 µM
same,EC50,"[18]; Homo sapiens, 120 h",18.4 µM
same,EC50,"[19]; Homo sapiens, 120 h",23.4 µM
same,EC50,"[20]; Homo sapiens, 120 h",14.8 µM
same,EC50,"[21]; Homo sapiens, 120 h",29.8 µM
same,EC50,"[22]; Homo sapiens, SAOS-2, 120 h",19.8 µM
same,EC50,"[23]; Homo sapiens, 120 h",16.7 µM
same,EC50,"[24]; Homo sapiens, 120 h",25.1 µM
same,EC50,"[25]; Homo sapiens, UO-31, 120 h",3.2 µM
same,EC50,"[26]; Homo sapiens, 120 h",47.5 µM
same,EC50,[27]; 120 h,34.3 µM
same,IC50,[28],0.17 µM
